Laboratory results published in patent US20230145868A1, “UREA INHIBITORS OF MICRO-RNA” (Board of Regents, The University of Texas System, priority 2020, published 2023).

Key:
AGS gastric cell line = test: Annexin V/PI apoptosis assay by flow cytometry, AGS; format: cell-based, human; conditions: up to 10 μM, 48 h
Procedure: In 6-well plates, 1×10^5 cells/mL were added into each well. After 24 h, sequential concentrations of DMSO and 4 based were administered and the plates were incubated for 48 h. The supernatant and adherent cells were collected and centrifugated. Each dose was done in triplicate, with each sample composing two wells. For apoptosis analysis, the supernatant was discarded after centrifugation and the pellet washed with PBS twice. Then, BD Annexin V-FITC/PI used to stain the cells for analysis via flow cytometry on the Gallios machine. For cell cycle analysis, after washing with PBS, cells were fixed with ethanol and incubated. They, were treated with RNase enzyme and analyzed.

Dicer = test: Western blot, Dicer expression; format: cell-based, human; conditions: AsPC1, AGS, U251, LN229
Procedure: (§1) Proteins are collected from cultured cells and lysed with 10× Lysis Buffer (Cell Signaling) freshly supplemented with a complete protease inhibitor cocktail and phosphatase inhibitors (Sigma). Bradford assay is used to measure protein concentration. Proteins are separated by polyacrylamide gel (Bio-rad) electrophoresis and were transferred to a 0.2 μm nitrocellulose membrane (Bio-rad). Quantification of protein expression was conducted using the image analysis software ImageJ.

[1] = tested on: miR-16, miR-28, miR-182, miR-10a, miR-21, miR-155; test: RT-qPCR of other micro-RNAs (selectivity); format: cell-based, human; conditions: AGS and AsPC1 cell lines; normalized to U6
U251 cell line = test: MTS proliferation assay, U251; format: cell-based, human; conditions: 5 and 10 μM, beginning at 48 h of treatment
Procedure: IC50 dose-response curves were determined using the cell proliferation assay system. Briefly, 5,000 or 10,000 cells of each cell line were plated in 96-well microculture plates in replicates of either 4 or 6. When cells became adherent, either 5 or 10 sequentially decreasing doses of the small molecule miRNA inhibitor were diluted into new media and added to individual wells. After either 24 or 48 hours, of a tetrazolium salt such as MTS, MTT, or WST-8 was added to each well at the same time of day as treatment and incubated for either 2 or 3 h at 37° C. The OD, measuring at the appropriate wavelength for the dye, was read at on a microplate spectrophotometer.
Cell proliferation is determined using a colorimetric assay. A tetrazolium salt such as MTS, MTT, or WST-8 is reduced by dehydrogenase activities in cells to give a formazan dye, which is soluble in the tissue culture media. The amount of the formazan dye (generated by the activities of dehydrogenases in cells, and directly proportional to the number of living cells) is measured after 3 h of incubation. The OD is read at 450 nm on a microplate spectrophotometer and growth values (%) are calculated as (OD treated cells/OD untreated cells)×100. The experiments are performed in triplicate. […] The OD is read at 450/550 nm on a microplate spectrophotometer, after one to seven days of the treatment. […]

PDGF = test: Western blot, PDGF expression; format: cell-based, human; conditions: LN229 and U251 brain cancer cell lines
Procedure: as §1

HOXD10 = test: Western blot, HOXD10 expression; format: cell-based, human; conditions: vs DMSO
Procedure: as §1

VEGF = test: Western blot, VEGF expression; format: cell-based, human; conditions: LN229 and U251 brain cancer cell lines
Procedure: as §1

[2] = Microsomal stability assay, mouse; format: in vitro ADME; conditions: 1 μM test compound, unit printed in b356 only
Procedure: The liver microsomal incubation mixture was composed of liver microsomes (with a concentration of 0.5 mg microsomal protein/ml), the test compound (1 μM), MgCl2 (3 mM), EDTA (1 mM) in potassium phosphate buffer (100 mM, pH 7.4). Control substrates used were Midazolam and Ketanserin. The reaction was initiated with the addition of an NADPH regeneration solution (1.3 mM NADPH) and maintained at 37° C. with shaking. At five sequential time points ranging from 0 to 45 min, aliquots of the mixture (50 μL) were removed and quenched with acetonitrile (100 μL) containing an internal standard control (imipramine) Samples were analyzed after vortexing and centrifugation by liquid chromatography-mass spectrometry (LC-MS/MS). The in vitro t1/2 was then calculated and clearance followed literature.

AsPC1 cell line = test: Migration assay, AsPC1; format: cell-based, human; conditions: vs DMSO
PTEN = test: Western blot, PTEN expression; format: cell-based, human
Procedure: as §1

[3] = tested on: U251 brain cancer cell line; test: Cell morphology; format: cell-based, human; conditions: over the course of 48 h
[4] = tested on: human pre-miR-10b RNA hairpin; test: NMR detection of compound binding to miRNA
Procedure: The human pre-miR-10b RNA hairpin sequence (nucleotides 40-75, per miRbase) was transcribed enzymatically and purified using methods previously described. The NMR screening buffer consisted of 20 mM Bis-Tris-d19 at pH 6.5, 10 mM NaCl, 0.2% Tween-20, and 11.1 μM DSA as chemical shift reference (integrates to 100 μM), prepared in 99.99% D2O or 95%H2O/5%D2O. Each ligand was first dissolved in DMSO to a 10 mM stock concentration. Free ligand screening samples were prepared at a final DMSO concentration of […] at a concentration of 100 μM in NMR screening buffer. For RNA target detected experiments, the lyophilized RNA pellets were dissolved in DMSO-free NMR screening buffer and heated for 4 min at 90° C., then snap cooled for 5 min at −20° C. ^1D-^1H experiments for both ligand and RNA were collected using the Bruker “zgesgp” excitation sculpting pulse sequence to suppress background water signal. Data was collected with 64 scans and 16K data points. Data was processed using 16K zero points, then Fourier transformed followed by manual phase and baseline correction. 2D-^1H TOCSY experiments were collected using the Bruker “mlevesgpph” pulse sequence with excitation sculpting water suppression, data collected with 32 scans, 2K×512 data points, a recycle delay of 1.2 s, and spin-lock mixing time of 80 ms. […]

[5] = mouse, liver microsomes, pH 7.4, mouse liver microsomes

Cc1ccc(F)c(NC(=O)Nc2ccc(-c3cccc4cn[nH]c34)cc2)c1 [Example 4, 1-(4-(1H-indazol-7-yl)phenyl)-3-(2-fluoro-5-methylphenyl)urea]
apoptotic cells (AGS gastric cell line): gradual increase | Dicer expression (Western blot) (Dicer): little to no variation | selectivity for miR-10b over other micro-RNAs [1]: selectivity of compound 4 for miR-10b becomes apparent | proliferation (MTS), every 24 h over 96 h (U251 cell line): significant difference in proliferation | PDGF expression (Western blot) (PDGF): low to very slight variations | HOXD10 expression (Western blot) (HOXD10; AGS cell line): upregulated | HOXD10 expression (Western blot) (HOXD10; AsPC1 cell line): upregulated | VEGF expression (Western blot) (VEGF): low to very slight variations | CLint ([2]; mouse liver microsomes): 58.9 mL/min/kg | Half-life ([2]; mouse liver microsomes): 1.55 h | CLint scaled at 1 μM [2, 5]: 58 mL/min/kg | half-life at 1 μM [2, 5]: 1.53 h | migration (AsPC1 cell line): decreased migration | PTEN expression (Western blot) (PTEN; LN229 brain cancer cell line): upregulation of PTEN | PTEN expression (Western blot) (PTEN; U251 brain cancer cell line): upregulation of PTEN | morphology of the cells [3]: significant change in the morphology | target detect 2D 1H-1H TOCSY, binding to pre-miR-10b ([4]; 50 μM pre-miR-10b titrated with 100 μM, largest shifts U6, U7, U8, U26, C27, C29, U33): directly binds to the hairpin structure of precursor miR-10b | ligand detected 1D-1H line broadening (peak signal free vs bound) ([4]; ligand with pre-miR-10b sequence, methyl protons, indicative of direct binding): large decrease in peak signal

Cc1ccc(F)c(NC(=O)Nc2ccc(-c3cncnc3)cc2)c1 [Example 2, 1-(2-fluoro-5-methylphenyl)-3-(4-(pyrimidin-5-yl)phenyl)urea]
HOXD10 expression (Western blot) (HOXD10; AGS cell line): upregulated
